From ChEMBL document CHEMBL5678803, “Selective blockade of TRPA1 channel attenuates pathological pain without altering noxious cold sensation or body temperature regulation” (Pain, 2011) come the findings set out here.

Activity calls are given as the source filed them. No cut-off for these calls is given here. Bounds are passed on as bounds.

Data set [1] has as its target Transient receptor potential cation channel subfamily A member 1 (Homo sapiens, UniProt O75762). The data set is described as follows: Antagonist activity at recombinant human TRPA1 expressed in HEK293F cells assessed as reduction in AITC-induced increase in intracellular Ca2+ level by FLIPR-based Ca2+ assay. Type of data set: cell-based. The conditions noted are these: filed as antagonist.

Data set [2] addresses T1, Transient receptor potential cation channel subfamily V member 3 (Homo sapiens) (UniProt Q8NET8).
T1 sequence (whole entry): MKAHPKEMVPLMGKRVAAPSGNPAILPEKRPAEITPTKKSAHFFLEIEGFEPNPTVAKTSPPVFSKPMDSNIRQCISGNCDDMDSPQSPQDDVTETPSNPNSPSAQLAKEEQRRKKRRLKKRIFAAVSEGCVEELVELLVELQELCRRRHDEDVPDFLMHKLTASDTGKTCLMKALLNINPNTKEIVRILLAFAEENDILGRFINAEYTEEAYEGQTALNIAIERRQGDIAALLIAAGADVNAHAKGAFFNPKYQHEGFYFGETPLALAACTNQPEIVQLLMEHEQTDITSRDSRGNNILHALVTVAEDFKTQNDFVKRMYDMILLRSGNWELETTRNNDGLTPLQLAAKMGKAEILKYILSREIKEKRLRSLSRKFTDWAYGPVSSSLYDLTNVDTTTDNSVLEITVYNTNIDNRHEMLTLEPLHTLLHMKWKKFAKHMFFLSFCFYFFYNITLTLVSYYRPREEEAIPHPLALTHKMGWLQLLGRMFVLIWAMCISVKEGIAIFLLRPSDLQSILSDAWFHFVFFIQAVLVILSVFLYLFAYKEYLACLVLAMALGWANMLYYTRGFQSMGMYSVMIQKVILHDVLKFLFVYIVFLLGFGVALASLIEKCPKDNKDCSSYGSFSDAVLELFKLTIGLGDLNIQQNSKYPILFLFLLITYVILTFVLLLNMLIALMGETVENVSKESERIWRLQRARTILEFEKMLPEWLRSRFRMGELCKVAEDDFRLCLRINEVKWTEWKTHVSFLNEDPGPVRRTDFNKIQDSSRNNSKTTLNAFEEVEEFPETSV
Put plainly: Activation of endogenous TRPV3 in human epithelial cells upto 100 micromol/L. Type of data set: cell-based. The conditions noted are these: Epithelial cell, dose <= 100.0 µmol/L.

Data set [3] deals with T2, Transient receptor potential cation channel subfamily V member 4 (Homo sapiens, UniProt Q9HBA0). The data set is described as follows: Activation of human TRPV4 expressed in HEK293F cells upto 100 micromol/L. The class given is cell-based. As to conditions: dose <= 100.0 µmol/L.
T2 sequence (Q9HBA0 whole entry): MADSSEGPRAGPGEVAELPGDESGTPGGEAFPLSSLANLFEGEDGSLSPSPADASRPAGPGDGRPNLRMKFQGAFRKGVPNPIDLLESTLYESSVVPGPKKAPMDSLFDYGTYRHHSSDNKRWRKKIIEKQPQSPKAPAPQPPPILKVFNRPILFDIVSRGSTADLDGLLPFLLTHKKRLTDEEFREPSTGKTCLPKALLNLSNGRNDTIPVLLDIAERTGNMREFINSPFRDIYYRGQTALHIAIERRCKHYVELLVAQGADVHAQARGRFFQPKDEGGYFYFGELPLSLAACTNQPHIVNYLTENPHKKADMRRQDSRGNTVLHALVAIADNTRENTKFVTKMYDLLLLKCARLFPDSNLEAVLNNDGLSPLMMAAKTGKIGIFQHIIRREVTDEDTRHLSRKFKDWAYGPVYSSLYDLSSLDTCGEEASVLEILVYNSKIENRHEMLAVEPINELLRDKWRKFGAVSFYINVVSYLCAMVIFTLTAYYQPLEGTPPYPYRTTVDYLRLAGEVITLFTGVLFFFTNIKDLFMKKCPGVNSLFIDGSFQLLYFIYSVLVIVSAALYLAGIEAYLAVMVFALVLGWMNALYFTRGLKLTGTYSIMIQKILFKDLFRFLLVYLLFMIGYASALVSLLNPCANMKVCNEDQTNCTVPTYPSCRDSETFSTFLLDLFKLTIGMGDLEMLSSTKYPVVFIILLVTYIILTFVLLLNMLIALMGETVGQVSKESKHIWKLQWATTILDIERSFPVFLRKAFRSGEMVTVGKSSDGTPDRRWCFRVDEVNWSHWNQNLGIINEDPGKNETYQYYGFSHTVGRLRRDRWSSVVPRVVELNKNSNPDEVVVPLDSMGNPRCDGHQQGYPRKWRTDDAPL
Data set [4] has as its target Transient receptor potential cation channel subfamily V member 1 (Homo sapiens, UniProt Q8NER1). Put plainly: Antagonist activity at human TRPV1 expressed in HEK293F cells assessed as inhibition of capsaicin-induced increase in intracellular Ca2+ level by FLIPR-based Ca2+ assay. Type of data set: cell-based.
In data set [5] the target is T2, Transient receptor potential cation channel subfamily V member 4. Put plainly: Antagonist activity at human TRPV4 expressed in HEK293F cells assessed as inhibition of mOsmo-induced increase in intracellular Ca2+ level by FLIPR-based Ca2+ assay. Type of data set: cell-based.
Data set [6] addresses T3, Transient receptor potential cation channel subfamily V member 2 (Rattus norvegicus) (UniProt Q9WUD2).
T3 sequence (whole entry): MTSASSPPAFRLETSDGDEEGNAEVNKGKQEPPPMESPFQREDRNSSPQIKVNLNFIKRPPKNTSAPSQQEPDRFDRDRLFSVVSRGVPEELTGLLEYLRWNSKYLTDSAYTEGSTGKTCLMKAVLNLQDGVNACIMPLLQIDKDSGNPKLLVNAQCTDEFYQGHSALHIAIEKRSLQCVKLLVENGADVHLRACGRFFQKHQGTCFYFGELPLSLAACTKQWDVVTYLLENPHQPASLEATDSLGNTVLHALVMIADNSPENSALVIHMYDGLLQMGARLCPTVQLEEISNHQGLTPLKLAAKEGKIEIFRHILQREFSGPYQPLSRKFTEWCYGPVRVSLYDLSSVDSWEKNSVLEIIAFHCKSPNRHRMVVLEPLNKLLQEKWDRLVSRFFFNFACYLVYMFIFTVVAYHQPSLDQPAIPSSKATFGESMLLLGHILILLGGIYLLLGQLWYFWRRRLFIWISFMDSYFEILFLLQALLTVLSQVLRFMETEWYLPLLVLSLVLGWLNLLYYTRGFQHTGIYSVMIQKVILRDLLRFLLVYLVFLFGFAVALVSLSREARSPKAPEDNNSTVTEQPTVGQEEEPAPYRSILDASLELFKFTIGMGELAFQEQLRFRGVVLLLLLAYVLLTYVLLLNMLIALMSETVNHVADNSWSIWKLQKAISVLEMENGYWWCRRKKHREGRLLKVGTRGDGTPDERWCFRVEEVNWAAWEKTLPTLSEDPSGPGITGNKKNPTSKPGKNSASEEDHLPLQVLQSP
Put plainly: Antagonist activity at rat TRPV2 expressed in HEK293F cells assessed as inhibition of 2APB-induced TRPV2 channel activation by FLIPR-based Ca2+ assay relative to control. Type of data set: cell-based. As to conditions: concentration not given here.

Data set [7] addresses Transient receptor potential cation channel subfamily M member 8 (Homo sapiens, UniProt Q7Z2W7). Put plainly: Antagonist activity at human TRPM8 expressed in HEK293F cells assessed as inhibition of menthol-induced TRPM8 channel activation by FLIPR-based Ca2+ assay relative to control. The class given is cell-based. As to conditions: concentration not given here.
In data set [8] the target is Sodium-dependent noradrenaline transporter (Homo sapiens) (UniProt P23975). Put plainly: Inhibition of norepinephrine transporter (unknown origin) at 10 micromol/L by radioligand binding assay. The conditions noted are these: dose 10.0 µmol/L.
Chain of Sodium-dependent noradrenaline transporter (Homo sapiens) (P23975 whole entry): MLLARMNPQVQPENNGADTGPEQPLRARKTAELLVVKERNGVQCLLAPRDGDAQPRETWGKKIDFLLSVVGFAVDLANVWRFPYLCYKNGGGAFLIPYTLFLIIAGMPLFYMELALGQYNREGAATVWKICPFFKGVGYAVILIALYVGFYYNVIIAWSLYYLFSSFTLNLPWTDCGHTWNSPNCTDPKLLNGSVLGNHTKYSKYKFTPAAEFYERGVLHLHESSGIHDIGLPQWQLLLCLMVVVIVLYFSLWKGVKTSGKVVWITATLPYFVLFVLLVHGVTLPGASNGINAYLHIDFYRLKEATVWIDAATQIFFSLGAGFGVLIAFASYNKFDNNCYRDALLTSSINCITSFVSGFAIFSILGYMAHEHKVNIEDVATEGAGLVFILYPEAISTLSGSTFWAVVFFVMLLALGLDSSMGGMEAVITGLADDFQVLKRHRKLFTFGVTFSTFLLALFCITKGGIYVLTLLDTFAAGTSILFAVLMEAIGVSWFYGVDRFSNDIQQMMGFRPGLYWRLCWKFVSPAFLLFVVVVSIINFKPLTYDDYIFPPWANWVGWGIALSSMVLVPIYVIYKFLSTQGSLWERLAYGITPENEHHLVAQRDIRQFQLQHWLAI
The target in data set [9] is Melatonin receptor type 1A (Homo sapiens) (UniProt P48039). The data set is described as follows: Inhibition of MT1 receptor (unknown origin) at 10 micromol/L by radioligand binding assay. As to conditions: dose 10.0 µmol/L.
Chain of Melatonin receptor type 1A (Homo sapiens) (P48039 whole entry): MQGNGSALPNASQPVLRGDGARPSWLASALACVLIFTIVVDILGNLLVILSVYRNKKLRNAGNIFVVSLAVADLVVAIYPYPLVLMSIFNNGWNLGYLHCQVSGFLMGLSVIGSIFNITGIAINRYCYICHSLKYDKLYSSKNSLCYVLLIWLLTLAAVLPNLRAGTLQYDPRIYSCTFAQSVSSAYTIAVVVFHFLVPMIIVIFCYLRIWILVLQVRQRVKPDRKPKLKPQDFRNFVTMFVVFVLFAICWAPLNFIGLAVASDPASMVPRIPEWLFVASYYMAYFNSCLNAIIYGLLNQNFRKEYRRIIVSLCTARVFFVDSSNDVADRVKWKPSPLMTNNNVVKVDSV
Data set [10] in a line: Oral bioavailability in rat at 2 mg/kg. As to conditions: in vivo. Type of data set: ADME, organism-based.
Data set [11] can be described thus: Drug concentration in rat at 20.7 mg/kg, po measured after 60 mins. As to conditions: in vivo, read-out: Drug uptake. Type of data set: ADME, organism-based.
Data set [12] can be described thus: Drug concentration in rat at 62.1 mg/kg, po measured after 60 mins. The class given is ADME, organism-based. The conditions noted are these: in vivo, read-out: Drug uptake.
Data set [13] is described as follows: Tmax in rat at 2 mg/kg, po. The class given is ADME, organism-based. The conditions noted are these: in vivo.
The nature of data set [14]: Toxicity in Sprague-Dawley rat assessed as effect on body temperature at 20.7 to 62.1 mg/kg, po measured after 480 mins by radiotelemetric analysis. Type of data set: organism-based. The conditions noted are these: in vivo, 8 h, dose 20.7-62.1 mg/kg.
Data set [15] concerns Rattus norvegicus. The data set is described as follows: Antiallodynic activity in acetone-induced CCI Sprague-Dawley rat model assessed as attenuation of acetone induced cold allodynia at 62.1 mg/kg, po measured after 1 hrs relative to control. Type of data set: functional.
Data set [16] relates to Rattus norvegicus. Put plainly: Antiallodynic activity in CCI-induced neuropathic pain Sprague-Dawley rat model assessed as attenuation of mechanical allodynia at 6.2 to 62.1 mg/kg, po administered with compound for 1 hrs and measured 10 to 14 days after surgery. The class given is functional, organism-based. The conditions noted are these: dose 6.2-62.1 mg/kg, time 241-337 hrs.

The test system of data set [17] is Rattus norvegicus. The data set is described as follows: Antiallodynic activity in CFA-induced mechanical allodynia Sprague-Dawley rat model assessed as attenuation of mechanical allodynia at 6.2 to 62.1 mg/kg, po administered with compound for 1 hrs and measured 48 hrs after CFA injection. Type of data set: functional, organism-based. The conditions noted are these: dose 6.2-62.1 mg/kg, time 49.0 hrs.

Chain of Transient receptor potential cation channel subfamily A member 1 (O75762 whole entry): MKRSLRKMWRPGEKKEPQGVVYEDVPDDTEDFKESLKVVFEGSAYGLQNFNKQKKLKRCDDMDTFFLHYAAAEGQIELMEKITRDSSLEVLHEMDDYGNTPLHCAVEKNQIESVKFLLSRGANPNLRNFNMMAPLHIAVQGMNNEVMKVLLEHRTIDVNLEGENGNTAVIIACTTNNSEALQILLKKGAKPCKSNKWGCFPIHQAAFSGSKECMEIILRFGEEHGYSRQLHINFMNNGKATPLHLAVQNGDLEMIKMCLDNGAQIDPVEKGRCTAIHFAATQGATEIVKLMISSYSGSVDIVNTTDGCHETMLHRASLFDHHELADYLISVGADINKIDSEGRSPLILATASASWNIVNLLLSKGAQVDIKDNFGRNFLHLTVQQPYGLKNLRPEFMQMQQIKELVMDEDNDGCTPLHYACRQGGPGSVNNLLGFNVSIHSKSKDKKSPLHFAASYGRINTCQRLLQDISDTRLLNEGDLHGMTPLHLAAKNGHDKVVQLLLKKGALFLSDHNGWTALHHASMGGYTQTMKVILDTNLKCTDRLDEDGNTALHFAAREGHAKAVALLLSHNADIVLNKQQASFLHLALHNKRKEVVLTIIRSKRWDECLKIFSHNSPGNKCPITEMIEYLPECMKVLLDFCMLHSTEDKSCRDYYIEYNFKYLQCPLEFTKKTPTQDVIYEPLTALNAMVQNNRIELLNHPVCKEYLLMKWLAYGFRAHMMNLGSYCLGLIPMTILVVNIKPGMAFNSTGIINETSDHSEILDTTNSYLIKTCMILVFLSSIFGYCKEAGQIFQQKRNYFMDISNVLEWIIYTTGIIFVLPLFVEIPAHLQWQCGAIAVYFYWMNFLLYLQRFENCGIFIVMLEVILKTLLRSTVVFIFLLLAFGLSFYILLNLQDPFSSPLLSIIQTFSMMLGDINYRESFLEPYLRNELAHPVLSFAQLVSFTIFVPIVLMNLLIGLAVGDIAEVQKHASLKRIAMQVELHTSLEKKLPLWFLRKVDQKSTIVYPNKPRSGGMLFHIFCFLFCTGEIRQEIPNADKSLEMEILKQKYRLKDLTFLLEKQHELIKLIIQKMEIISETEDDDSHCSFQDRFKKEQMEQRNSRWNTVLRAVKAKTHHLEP
Chain of Transient receptor potential cation channel subfamily M member 8 (Q7Z2W7 whole entry, looked up): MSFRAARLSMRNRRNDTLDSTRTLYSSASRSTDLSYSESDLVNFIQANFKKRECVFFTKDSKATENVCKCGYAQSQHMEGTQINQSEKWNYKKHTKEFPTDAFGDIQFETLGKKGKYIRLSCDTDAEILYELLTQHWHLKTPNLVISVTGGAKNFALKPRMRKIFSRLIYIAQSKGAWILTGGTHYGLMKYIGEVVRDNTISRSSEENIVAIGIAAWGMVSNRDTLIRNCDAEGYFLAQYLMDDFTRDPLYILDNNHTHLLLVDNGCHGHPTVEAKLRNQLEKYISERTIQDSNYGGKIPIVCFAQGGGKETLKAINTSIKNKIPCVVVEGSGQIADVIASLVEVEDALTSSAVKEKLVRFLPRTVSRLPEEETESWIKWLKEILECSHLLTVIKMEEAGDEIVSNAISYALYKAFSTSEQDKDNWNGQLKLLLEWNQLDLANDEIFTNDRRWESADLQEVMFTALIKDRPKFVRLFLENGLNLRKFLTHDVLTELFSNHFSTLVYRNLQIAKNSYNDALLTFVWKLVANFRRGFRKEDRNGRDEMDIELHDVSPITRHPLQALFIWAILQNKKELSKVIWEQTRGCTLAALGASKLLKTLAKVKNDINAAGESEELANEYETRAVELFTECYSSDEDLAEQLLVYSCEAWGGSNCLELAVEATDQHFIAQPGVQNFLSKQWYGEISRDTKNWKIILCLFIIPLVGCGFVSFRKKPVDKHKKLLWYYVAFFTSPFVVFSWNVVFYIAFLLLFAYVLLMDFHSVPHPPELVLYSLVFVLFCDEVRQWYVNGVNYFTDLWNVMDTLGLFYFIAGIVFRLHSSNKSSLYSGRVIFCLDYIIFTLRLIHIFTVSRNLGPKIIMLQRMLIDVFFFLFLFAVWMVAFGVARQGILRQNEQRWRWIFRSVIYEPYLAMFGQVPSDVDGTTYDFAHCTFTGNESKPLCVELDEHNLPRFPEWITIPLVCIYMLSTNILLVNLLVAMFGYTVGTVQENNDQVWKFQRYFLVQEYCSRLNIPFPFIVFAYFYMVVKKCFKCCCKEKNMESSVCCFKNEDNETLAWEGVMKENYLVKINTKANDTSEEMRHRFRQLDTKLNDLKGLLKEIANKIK
Chain of Transient receptor potential cation channel subfamily V member 1 (Q8NER1 whole entry): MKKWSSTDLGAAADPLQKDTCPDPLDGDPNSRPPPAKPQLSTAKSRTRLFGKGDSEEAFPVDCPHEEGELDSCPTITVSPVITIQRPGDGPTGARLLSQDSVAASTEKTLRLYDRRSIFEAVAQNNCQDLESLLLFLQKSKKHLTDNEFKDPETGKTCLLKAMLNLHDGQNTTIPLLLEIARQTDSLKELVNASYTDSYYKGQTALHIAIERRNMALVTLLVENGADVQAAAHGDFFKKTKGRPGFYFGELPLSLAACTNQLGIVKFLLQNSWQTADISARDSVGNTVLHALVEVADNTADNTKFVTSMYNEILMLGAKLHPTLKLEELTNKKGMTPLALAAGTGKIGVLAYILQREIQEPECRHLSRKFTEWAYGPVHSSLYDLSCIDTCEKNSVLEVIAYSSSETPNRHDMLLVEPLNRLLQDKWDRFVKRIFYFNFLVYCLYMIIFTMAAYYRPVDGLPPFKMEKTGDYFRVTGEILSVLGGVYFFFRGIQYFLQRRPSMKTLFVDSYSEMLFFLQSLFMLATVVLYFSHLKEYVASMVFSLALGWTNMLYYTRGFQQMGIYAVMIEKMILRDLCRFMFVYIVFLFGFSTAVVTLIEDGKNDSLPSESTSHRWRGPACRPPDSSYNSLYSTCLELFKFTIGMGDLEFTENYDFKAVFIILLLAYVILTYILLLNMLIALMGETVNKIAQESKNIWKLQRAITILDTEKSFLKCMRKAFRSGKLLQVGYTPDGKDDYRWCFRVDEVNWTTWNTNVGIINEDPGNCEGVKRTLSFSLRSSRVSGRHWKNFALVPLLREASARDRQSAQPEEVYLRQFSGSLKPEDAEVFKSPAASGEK

As to `CCC(=N\O)/C(C)=C/c1ccc(F)cc1` [A-079], the values for the Activity entry (in data set [1]; in data set [14]; with Rattus norvegicus [15]) were “Dose-Dependent Effect”, “Non-Toxic” and 46.4%, respectively. Besides, the result (in data set [2]; in data set [3]; in the data set on Rattus norvegicus [16]; in the data set with Rattus norvegicus [17]) was inactive. Further, the half-inhibitory concentration (IC50) in [4] and in data set [5] was > 100 µM in each case. For the same molecule, the inhibition in data set [6] was < 20%; in data set [7], < 20%; in data set [8] it was 32%; in data set [9] it was 31%. The molecule also returned a bioavailability in data set [10] of 37%. Further, the concentration at 1 h was found to be 6.22 µM in data set [11] and 11.8 µM in data set [12]. Besides, the time of peak concentration (Tmax) in [13] worked out at 30 min.
